One series concerns SARS-CoV. The conditions noted are these: ref Barnard et al., 2008; read-out: EC50, inhibition of SARS-CoV replication; cited from earlier work.
Another series in a line: in vitro. The conditions noted are these: African green monkey.
The conditions of series [1]: human, cited from earlier work.
For series [2], the system named is SARS-CoV-2 (USA_WA1/2020). The series can be described thus: microbe, parasite or virus in culture. In kind it is cell-based.
The next series relates to Ebola virus. The conditions noted are these: ref Kouznetsova et al., 2019; read-out: EC50, block of Ebola viral entry; cited from earlier work.
Series [3] relates to SARS-CoV-2. More on the design: method as in Stanford University, 2020. Conditions: Vero E6 cells; ref Stanford University, 2020; read-out: EC50 against SARS-CoV-2; cited from earlier work.
Series [4] relates to SARS-CoV-2. On the set-up: method as in Stanford University, 2020. The conditions noted are these: Calu-3 or Huh7 cell lines; ref Stanford University, 2020; read-out: EC50 against SARS-CoV-2; cited from earlier work.
The next series concerns Vero E6 cells. Put plainly: cells. Conditions: Chlorocebus sabaeus, Vero C1008, read-out: % Viability: IC50.
The test system of the next series is P-glycoprotein (P-gp). On the set-up: method as in EMA, 2020. Conditions: ref EMA, 2020; cited from earlier work.
[5] abbreviates: Severe acute respiratory syndrome coronavirus 2, Vero C1008, 72 h; read-out: CPE EC50.
Where [6] appears, read: Severe acute respiratory syndrome coronavirus 2, Vero C1008; […]; DMSO 0%, no-virus control 100%; hit confirmation; read-out: CPE % efficacy.
[7] abbreviates: Severe acute respiratory syndrome coronavirus 2, Vero C1008, read-out: CPE % Efficacy.

Each structure is given as a SMILES string. pEC50, pIC50: −log10 of the molar value. “And” between values parts separate entries of the source, which are not always exact repeats. Equal entries are not always repeated. Structures can show the parent of a compound that is named as a salt. Where two headings read alike, the source gives them in different places. Where only a bound is given, the exact number is not on record here.

On to `CN(C)CC/C=C1/c2ccccc2Sc2ccc(Cl)cc21` [Chlorprothixene, reference compound], for which the pEC50 with SARS-CoV is roughly 5.00; in series [2] (setting [5]) it was 5.00. This compound gave a cytotoxicity in “in vitro” of less than 30%. Besides, the “Elimination T1/2” value in series [1] (Single dose 100 mg IV, ref Bagli et al. (1996)) was 25.8 ± 13.6 h. In addition, the Emax in series [2] (setting [6]) stood at 104%.
In the case of `CNCC[C@H](Oc1cccc2ccccc12)c1cccs1` [Duloxetine hydrochloride, reference compound], in “in vitro”, the cytotoxicity is less than 30%. Moreover, the “Elimination T1/2” value in series [1] (60 mg BID PO, ref Knadler et al. (2011)) was 6.96 to 14.9 h. Further, in series [2] (Severe acute respiratory syndrome coronavirus 2, Vero C1008, 72 h, read-out: CPE EC50), the pEC50 was 5.00. Also, the Emax in series [2] (setting [7]) worked out at 90%.
In “in vitro”, `CN(C)C(=O)C(CCN1CCC(O)(c2ccc(Cl)cc2)CC1)(c1ccccc1)c1ccccc1` [Loperamide hydrochloride, reference compound] came in with a cytotoxicity of less than 30%. The “Elimination T1/2” value in series [1] (Single dose 2 mg PO, ref Janssen Pharmaceutica Inc. (1998)) was 9.1 to 14.4 h. Besides, in series [2] (setting [6]), the Emax came out at 98.6%.
Compound `CNCCCC12CCC(c3ccccc31)c1ccccc12` [Maprotiline hydrochloride, reference compound] gave a cytotoxicity in “in vitro” of less than 30%. Moreover, the “Elimination T1/2” value in [1] (Single dose 75 mg PO, ref Maguire et al. (1980)) is 45 h. The Emax in [2] (setting [7]) came out at 104%.
For `COc1ccc2c(c1)N(C[C@H](C)CN(C)C)c1ccccc1S2` [Methotrimeprazine maleate, reference compound], the results for the pEC50 (in the series on SARS-CoV; in [2] (setting [5])) were roughly 5.00 and 5.00, respectively. The cytotoxicity at 72 h in the series “in vitro” was less than 30%. The “Elimination T1/2” value in series [1] (Single dose 25 mg PO, ref AA Pharma Inc. (2012)) is on record as 10.8 h. Also, the Emax in [2] (setting [6]) turned out to be 84.6%.
On to `CC(=O)c1ccc2c(c1)N(CCCN1CCC(CCO)CC1)c1ccccc1S2` [Piperacetazine, reference compound], for which the cytotoxicity in “in vitro” was less than 30%. Further, the pEC50 in the series with Ebola virus is 5.01; in [2] (setting [5]), 5.00. The Emax in series [2] (setting [6]) worked out at 104%.
For the compound `CCC(CC)COC(=O)[C@H](C)N[P@](=O)(OC[C@H]1O[C@@](C#N)(c2ccc3c(N)ncnn23)[C@H](O)[C@@H]1O)Oc1ccccc1` [Remdesivir, reference compound], the pEC50 with SARS-CoV-2 [3] was less than 6.00; with SARS-CoV-2 [4] it was less than 7.30; in series [2] (setting [5]) it was 5.00; in [2] (Severe acute respiratory syndrome coronavirus 2, Vero C1008, independent runs of primary screens and hit confirmation; read-out: EC50 in the CPE assay, control concentration-response per run), 5.34; in [2] (independent runs of primary screens and hit confirmation; listed as remdesivir; read-out: EC50 in the CPE assay, control concentration-response per run), 5.29; in series [2] (independent runs of primary screens and hit confirmation; read-out: EC50 in the CPE assay, control concentration-response per run) it was 5.35 and 5.14. The compound further returned a cytotoxicity in “in vitro” of less than 30%. For the same compound, the negative-log IC50 (pIC50) is less than 4.52 in the series on Vero E6 cells and 5.34 in [2] (Severe acute respiratory syndrome coronavirus 2, Vero C1008, printed in picture of Figure 2B, one value per run; read-out: % CPE Rescue: IC50). In addition, in the series on P-glycoprotein (P-gp), the “Substrate of Pgp” value is on record as “substrate of Pgp”. The Emax in series [2] (setting [6]) was 133%.

Values taken from PMC7942396, “Drug Repurposing Screen for Compounds Inhibiting the Cytopathic Effect of SARS-CoV-2” (Frontiers in Pharmacology, 2021).
